In US6495592B1, “Tracheal smooth muscle relaxants” (Nippon Suisan Kaisha, Ltd., priority 1996, dated 2002):

These molecules were tested on tracheal smooth muscle (assay: Dilating action to contraction of tracheal smooth muscle (potassium chloride-induced contraction of isolated trachea segment, Magnus tube)). Settings: 30 μM test substance; contraction induced by 72.7 mM potassium chloride; guinea pig (Hartley, male) trachea segment.
Type: cell-based
Method: Each sample is tested by using two segment obtained from one animal; the trachea was removed from a guinea pig (Hartley, male, seven weeks age) and was made the segment, 6 mm in length. The segment was suspended in a Magnus tube containing a physiological salt solution of 37° C. with a flow of mixed gas consisting of 95% oxygen and 5% carbon dioxide gas. A base-line tension of 1 g was applied to the segment and, after tension of the sample became stable, the solution was exchanged with a solution containing 72.7 mM of potassium chloride to induce a contraction. When tension of the contraction by potassium chloride became stable, a compound of the formula (1) was added as a test substance to measure the change in the tension. The test substance was dissolved in dimethyl sulfoxide and added thereto. Incidentally, at the stage of addition, the final concentration of dimethyl sulfoxide was made not more than 0.3%. Changes in the tension was recorded on a recorder (R-64V, Rika Denki) after introducing to an amplifier for strain pressure (AP-621G, Nippon Koden Kogyo) via an FD pickup transducer (TB-611T, Nippon Koden Kogyo). Tension before addition of potassium chloride was set as 0 while that after addition of potassium chloride was set as 100 and the suppressing rate for contraction by potassium chloride after addition of the test substance was expressed by a relative percentage whereby the activity was determined according to the following criteria.
The Compound No. in the table is the same as that in the Production Examples.

With “2-thiomethyl-7,9-dihydroxy-10,11-dihydrodibenzo[b,f]oxepin-10-one S-oxide [Compound 109]” the “Activity (suppressing rate for contraction by potassium chloride)” value was “− (no suppressing action of not less than 50% was achieved at 30 μM)”.

Same assay, conditions: Cavia porcellus; 30 μM test substance; contraction induced by 72.7 mM potassium chloride; guinea pig (Hartley, male) trachea segment; read-out: Activity (suppressing rate for contraction by potassium chloride)

`O=C1Cc2ccccc2Oc2c(O)c(O)cc(O)c21` [Compound 2, 6,7,9-trihydroxy-10,11-dihydrodibenz[b,f]oxepin-10-one] and `O=C1Cc2ccccc2Oc2cc(O)c(O)c(O)c21` [Compound 9, 7,8,9-trihydroxy-10,11-dihydrodibenz[b,f]oxepin-10-one] cannot be ordered by inhibition at 30 µM: at most 50% for the first, at most 50% for the second.

`O=C1Cc2ccccc2Oc2c(O)ccc(O)c21` [Compound 7, 6,9-dihydroxy-10,11-dihydrodibenz[b,f]oxepin-10-one] and `O=C1Cc2ccccc2Oc2c1ccc(O)c2O` [Compound 8, 6,7-dihydroxy-10,11-dihydrodibenz[b,f]oxepin-10-one] cannot be ordered by inhibition at 30 µM: at least 50% for the first, at most 50% for the second.

`Oc1cc(O)c2c(c1)Oc1ccccc1CC2` [Compound 12, 10,11-dihydrodibenz[b,f]oxepin-1,3-diol] and `Oc1cc(O)c2c(c1)Oc1cc(Cl)ccc1CC2` [Compound 16, 7-chloro-10,11-dihydrodibenz[b,f]oxepin-1,3-diol] cannot be ordered by inhibition at 30 µM: at least 50% for the first, at most 50% for the second.

`O=C1Cc2ccccc2Oc2cc(O)c(O)cc21` [Compound 13, 7,8-dihydroxy-10,11-dihydrodibenz[b,f]oxepin-10-one] and `Oc1cc2c(cc1O)Oc1ccccc1CC2` [Compound 14, 10,11-dihydrodibenz[b,f]oxepin-2,3-diol] cannot be ordered by inhibition at 30 µM: at most 50% for the first, at most 50% for the second.

`O=C1Cc2ccc(Cl)cc2Oc2cc(O)cc(O)c21` [Compound 15, 3-chloro-7,9-dihydroxy-10,11-dihydrodibenz[b,f]oxepin-10-one] and `O=C1Cc2cc(Cl)ccc2Oc2cc(O)cc(O)c21` [Compound 19, 2-chloro-7,9-dihydroxy-10,11-dihydrodibenz[b,f]oxepin-10-one] cannot be ordered by inhibition at 30 µM: at least 50% for the first, at least 50% for the second.

`Oc1cc(O)c2c(c1)Oc1ccc(Cl)cc1CC2` [Compound 20, 8-chloro-10,11-dihydrodibenz[b,f]oxepin-1,3-diol] and `Oc1cc(O)c2c(c1)Oc1ccc(F)cc1CC2` [Compound 30, 8-fluoro-10,11-dihydrodibenz[b,f]oxepin-1,3-diol] cannot be ordered by inhibition at 30 µM: at most 50% for the first, at least 50% for the second.

`O=C1Cc2ccc(F)cc2Oc2cc(O)cc(O)c21` [Compound 23, 3-fluoro-7,9-dihydroxy-10,11-dihydrodibenz[b,f]oxepin-10-one] and `O=C1Cc2cc(F)ccc2Oc2cc(O)cc(O)c21` [Compound 29, 2-fluoro-7,9-dihydroxy-10,11-dihydrodibenz[b,f]oxepin-10-one] cannot be ordered by inhibition at 30 µM: at least 50% for the first, at least 50% for the second.

`Oc1cc(O)c2c(c1)Oc1cc(F)ccc1CC2` [Compound 24, 7-fluoro-10,11-dihydrodibenz[b,f]oxepin-1,3-diol] and `Nc1ccc2c(c1)CCc1c(O)cc(O)cc1O2` [Compound 77, 8-amino-10,11-dihydrodibenz[b,f]oxepin-1,3-diol] cannot be ordered by inhibition at 30 µM: at least 50% for the first, at most 50% for the second.

`O=C1Cc2ccc(Cl)c(Cl)c2Oc2cc(O)cc(O)c21` [Compound 27, 3,4-dichloro-7,9-dihydroxy-10,11-dihydrodibenz[b,f]oxepin-10-one] and `O=C1Cc2cccc(Cl)c2Oc2cc(O)cc(O)c21` [Compound 36, 4-chloro-7,9-dihydroxy-10,11-dihydrodibenz[b,f]oxepin-10-one] cannot be ordered by inhibition at 30 µM: at least 50% for the first, at least 50% for the second.

`Oc1cc(O)c2c(c1)Oc1c(ccc(Cl)c1Cl)CC2` [Compound 28, 6,7-dichloro-10,11-dihydrodibenz[b,f]oxepin-1,3-diol] and `Oc1cc(O)c2c(c1)Oc1c(Cl)cccc1CC2` [Compound 37, 6-chloro-10,11-dihydrodibenz[b,f]oxepin-1,3-diol] cannot be ordered by inhibition at 30 µM: at most 50% for the first, at least 50% for the second.

`O=C1Cc2cc(Cl)cc(Cl)c2Oc2cc(O)cc(O)c21` [Compound 34, 2,4-dichloro-7,9-dihydroxy-10,11-dihydrodibenz[b,f]oxepin-10-one] and `Oc1cc(O)c2c(c1)Oc1c(Cl)cc(Cl)cc1CC2` [Compound 35, 6,8-dichloro-10,11-dihydrodibenz[b,f]oxepin-1,3-diol] cannot be ordered by inhibition at 30 µM: at least 50% for the first, at most 50% for the second.

`O=C1Cc2cc(C(F)(F)F)ccc2Oc2cc(O)cc(O)c21` [Compound 38, 7,9-dihydroxy-2-trifluoromethyl-10,11-dihydrodibenz[b,f]oxepin-10-one] and `Nc1ccc2c(c1)CC(=O)c1c(O)cc(O)cc1O2` [Compound 71, 2-amino-7,9-dihydroxy-10,11-dihydrodibenz[b,f]oxepin-10-one] cannot be ordered by inhibition at 30 µM: at least 50% for the first, at least 50% for the second.

`Oc1cc(O)c2c(c1)Oc1ccc(C(F)(F)F)cc1CC2` [Compound 39, 8-trifluoromethyl-10,11-dihydrodibenz[b,f]oxepin-1,3-diol] and `CC(O)c1ccc2c(c1)CCc1c(O)cc(O)cc1O2` (stereo not shown) [Compound 96, 8-(1-hydroxyethyl)-10,11-dihydrodibenzo[b,f]oxepin-1,3-diol] cannot be ordered by inhibition at 30 µM: at least 50% for the first, at least 50% for the second.

`O=C1Cc2cc(O)c(O)cc2Oc2cc(O)cc(O)c21` [Compound 40, 2,3,7,9-tetrahydroxy-10,11-dihydrodibenz[b,f]oxepin-10-one] and `O=C1Cc2cc(Br)ccc2Oc2cc(O)cc(O)c21` [Compound 110, 2-bromo-7,9-dihydroxy-10,11-dihydrodibenzo[b,f]oxepin-10-one] cannot be ordered by inhibition at 30 µM: at most 50% for the first, at least 50% for the second.

`Oc1cc2c(cc1O)Sc1ccccc1CC2` [Compound 44, 10,11-dihydrodibenz[b,f]thiepin-2,3-diol] and `Oc1cc(O)c2c(c1)Sc1ccccc1CC2` [Compound 81, 10,11-dihydrodibenzo[b,f]thiepin-1,3-diol] cannot be ordered by inhibition at 30 µM: at least 50% for the first, at least 50% for the second.

`CC(=O)c1c(O)cc(O)c2c1Oc1ccccc1CC2` [Compound 47, 4-acetyl-10,11-dihydrodibenz[b,f]oxepin-1,3-diol] and `CC(=O)c1c(O)cc(O)c2c1Sc1ccccc1CC2` [Compound 85, 4-acetyl-10,11-dihydrodibenzo[b,f]thiepin-1,3-diol] cannot be ordered by inhibition at 30 µM: at least 50% for the first, at least 50% for the second.

`O=C1Cc2c(F)cccc2Oc2cc(O)cc(O)c21` [Compound 49, 1-fluoro-7,9-dihydroxy-10,11-dihydrodibenz[b,f]oxepin-10-one] and `CSc1ccc2c(c1)CC(=O)c1c(O)cc(O)cc1O2` [Compound 108, 2-thiomethyl-7,9-dihydroxy-10,11-dihydrodibenzo[b,f]oxepin-10-one] cannot be ordered by inhibition at 30 µM: at least 50% for the first, at least 50% for the second.

`O=C1Cc2c(F)cccc2Oc2cc(F)c(F)cc21` [Compound 63, 1,7,8-trifluoro-10,11-dihydrodibenz[b,f]oxepin-10-one] and `O=C1Cc2cc([N+](=O)[O-])ccc2Oc2cc(O)cc(O)c21` [Compound 70, 2-nitro-7,9-dihydroxy-10,11-dihydrodibenz[b,f]oxepin-10-one] cannot be ordered by inhibition at 30 µM: at least 50% for the first, at least 50% for the second.

`CC(=O)c1c(O)c2c(c(C(C)=O)c1O)Sc1ccccc1CC2` [Compound 84, 2,4-diacetyl-10,11-dihydrodibenzo[b,f]thiepin-1,3-diol] and `CCC(=O)c1c(O)c2c(c(C(=O)CC)c1O)Sc1ccccc1CC2` [Compound 89, 2,4-dipropionyl-10,11-dihydrodibenzo[b,f]thiepin-1,3-diol] cannot be ordered by inhibition at 30 µM: at least 50% for the first, at least 50% for the second.

`CC(=O)c1ccc2c(c1)CCc1c(O)cc(O)cc1S2` [Compound 86, 8-acetyl-10,11-dihydrodibenzo[b,f]thiepin-1,3-diol] and `CCC(=O)c1ccc2c(c1)CCc1c(O)cc(O)cc1S2` [Compound 91, 8-propionyl-10,11-dihydrodibenzo[b,f]thiepin-1,3-diol] cannot be ordered by inhibition at 30 µM: at least 50% for the first, at least 50% for the second.

`CCC(=O)c1c(O)cc(O)c2c1Sc1ccccc1CC2` [Compound 90, 4-propionyl-10,11-dihydrodibenzo[b,f]thiepin-1,3-diol] and `CC(=O)c1ccc2c(c1)CCc1c(O)cc(O)cc1O2` [Compound 95, 8-acetyl-10,11-dihydrodibenzo[b,f]oxepin-1,3-diol] cannot be ordered by inhibition at 30 µM: at least 50% for the first, at least 50% for the second.

`CC(=O)c1ccc2c(c1)C=Cc1cc(O)c(O)cc1S2` [Compound 92, 8-acetyldibenzo[b,f]thiepin-2,3-diol] and `Cc1ccc2c(c1)CC(=O)c1cc(O)c(O)cc1S2` [Compound 104, 7,8-dihydroxy-2-methyl-10,11-dihydrodibenzo[b,f]thiepin-10-one] cannot be ordered by inhibition at 30 µM: at least 50% for the first, at least 50% for the second.

`CC(=O)Nc1ccc2c(c1)CC(=O)c1c(O)cc(O)cc1O2` [Compound 94, N-acetyl-2-amino-7,9-dihydroxy-10,11-dihydrodibenzo[b,f]oxepin-10-one] and `CCc1ccc2c(c1)CC(=O)c1c(O)cc(OC)cc1O2` [Compound 111, 2-ethyl-9-hydroxy-7-methoxy-10,11-dihydrodibenzo[b,f]oxepin-10-one] cannot be ordered by inhibition at 30 µM: at least 50% for the first, at least 50% for the second.

`O=C(O)Cc1ccc2c(c1)CCc1c(O)cc(O)cc1O2` [Compound 97, 7,9-dihydroxy-10,11-dihydrodibenzo[b,f]oxepin-2-acetic acid] and `CC(C)c1ccc2c(c1)CC(=O)c1cc(O)c(O)cc1S2` [Compound 106, 7,8-dihydroxy-2-(2-propyl)-10,11-dihydrodibenzo[b,f]thiepin-10-one] cannot be ordered by inhibition at 30 µM: at most 50% for the first, at least 50% for the second.
